Assay results from the NIST ThermoML archive (doi:10.1016/j.jct.2013.01.012).

Key:
[1] = mn = molality of the nth substance listed, in mol/kg; conditions: 101 kPa, Liquid; for speed of sound: Sing-around technique in a fixed-path interferometer; for mass density: Vibrating tube method
[2] = refractive index (Na D-line) (dimensionless); mn = molality of the nth substance listed, in mol/kg; conditions: 101 kPa, Liquid, Standard Abbe refractometry

O=P([O-])(O)O.[Na+] [sodium dihydrogen phosphate] + O
Conditions	mass density, 298.15 K [kg/m3]	mass density, 303.15 K [kg/m3]	mass density, 308.15 K [kg/m3]	refractive index, 298.15 K	refractive index, 303.15 K	refractive index, 308.15 K	speed of sound, 298.15 K [m/s]	speed of sound, 303.15 K [m/s]	speed of sound, 308.15 K [m/s]
[1], m1 = 0.1	1006.23	1005.17	1004.2	–	–	–	1507.1	1519.2	1529.8
[1], m1 = 0.3	1024.26	1022.91	1021.13	–	–	–	1527.2	1538.5	1548.1
[1], m1 = 0.5	1043.03	1041.67	1039.97	–	–	–	1547.3	1558.2	1567.3
[1], m1 = 0.7	1062.08	1060.86	1060.09	–	–	–	1567.7	1577.8	1587.9
[1], m1 = 0.9	1081.28	1079.48	1080.28	–	–	–	1587.8	1579.2	1608.1
[2], m1 = 0.1	–	–	–	1.3346	1.334	1.3335	–	–	–
[2], m1 = 0.3	–	–	–	1.3381	1.3376	1.3371	–	–	–
[2], m1 = 0.5	–	–	–	1.3408	1.3412	1.3398	–	–	–
[2], m1 = 0.7	–	–	–	1.344	1.3435	1.3428	–	–	–
[2], m1 = 0.9	–	–	–	1.3492	1.3473	1.3466	–	–	–

O=P([O-])([O-])O.[Na+].[Na+] [disodium hydrogen phosphate] + O
Conditions	mass density, 298.15 K [kg/m3]	mass density, 303.15 K [kg/m3]	mass density, 308.15 K [kg/m3]	refractive index, 298.15 K	refractive index, 303.15 K	refractive index, 308.15 K	speed of sound, 298.15 K [m/s]	speed of sound, 303.15 K [m/s]	speed of sound, 308.15 K [m/s]
[1], m1 = 0.1	1010.86	1009.51	1008.19	–	–	–	1514.6	1526.5	1537
[1], m1 = 0.3	1038.69	1037	1035.61	–	–	–	1549.5	1560.1	1569.8
[1], m1 = 0.5	1066.76	1069.09	1051.41	–	–	–	1583.5	1598.6	1588.7
[1], m1 = 0.7	1096.95	1095.37	1099.82	–	–	–	1621.3	1630	1646.2
[1], m1 = 0.9	1129.62	1128.52	1162.21	–	–	–	1663.2	1672.3	1685.8
[2], m1 = 0.1	–	–	–	1.3354	1.3347	1.3344	–	–	–
[2], m1 = 0.3	–	–	–	1.3408	1.3404	1.3398	–	–	–
[2], m1 = 0.5	–	–	–	1.3457	1.3456	1.3448	–	–	–
[2], m1 = 0.7	–	–	–	1.3512	1.3507	1.3499	–	–	–
[2], m1 = 0.9	–	–	–	1.3562	1.3557	1.3552	–	–	–

O=P([O-])([O-])[O-].[K+].[K+].[K+] [tripotassium phosphate] + O
Conditions	mass density, 298.15 K [kg/m3]	mass density, 303.15 K [kg/m3]	mass density, 308.15 K [kg/m3]	refractive index, 298.15 K	refractive index, 303.15 K	refractive index, 308.15 K	speed of sound, 298.15 K [m/s]	speed of sound, 303.15 K [m/s]	speed of sound, 308.15 K [m/s]
[1], m1 = 0.1	1017.14	1015.62	1013.92	–	–	–	1518.2	1529.8	1539.7
[1], m1 = 0.3	1057.82	1056.83	1054.87	–	–	–	1559.7	1570.2	1578.9
[1], m1 = 0.5	1101.23	1100.46	1098.72	–	–	–	1603	1616.1	1622.8
[1], m1 = 0.7	1145.91	1145.57	1144.26	–	–	–	1658.8	1666.7	1671.9
[1], m1 = 0.9	1191.53	1191.62	1190.09	–	–	–	1716.6	1723.7	1725.1
[2], m1 = 0.1	–	–	–	1.3365	1.3357	1.3351	–	–	–
[2], m1 = 0.3	–	–	–	1.344	1.3435	1.3426	–	–	–
[2], m1 = 0.5	–	–	–	1.3517	1.351	1.3502	–	–	–
[2], m1 = 0.7	–	–	–	1.3595	1.3588	1.3581	–	–	–
[2], m1 = 0.9	–	–	–	1.3671	1.3667	1.3659	–	–	–
